Experimental data from ChEMBL document CHEMBL1201862, “PubChem BioAssay data set” (2004).
Calls of active or inactive are those of the source. For most assays here, no stated cut-off is given here; in the data, actives have a measured EC50 and inactives only a lower limit.

Experiments:
[1] = biological target: Sphingosine 1-phosphate receptor 2 (Homo sapiens, UniProt O95136); experiment: Dose Response Cell Based Assay for Agonists of the S1P2 Receptor of Purchased Analogues. [Related pubchem assays: 729, 843, 854, 736 ]; type: functional
[2] = viability loss of HPDE-C7K cells – cell-based, fluorescence, HTS, primary screen (AID 431); type: functional; conditions: Homo sapiens
[3] = HPDE-C7 pancreatic duct cell viability loss – fluorescence, HTS (AID 430); type: functional, cell-based; conditions: Homo sapiens

Chain of Sphingosine 1-phosphate receptor 2 (O95136 whole entry): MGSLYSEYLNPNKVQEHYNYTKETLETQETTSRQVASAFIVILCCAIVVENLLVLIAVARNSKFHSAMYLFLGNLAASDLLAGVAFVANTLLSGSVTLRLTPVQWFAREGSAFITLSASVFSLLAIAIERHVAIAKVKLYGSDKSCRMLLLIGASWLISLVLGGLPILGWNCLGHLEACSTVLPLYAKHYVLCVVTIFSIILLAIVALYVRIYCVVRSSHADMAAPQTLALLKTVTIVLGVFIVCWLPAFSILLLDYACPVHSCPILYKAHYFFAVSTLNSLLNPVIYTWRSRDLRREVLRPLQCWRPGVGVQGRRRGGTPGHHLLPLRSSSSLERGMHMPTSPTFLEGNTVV

EC50 [1] | SMILES | EC50 [2] | EC50 [3]
> 30 µM (not active) | CCCNC(=O)CN(C)CC(=O)c1cc(C)n(Cc2ccccc2)c1C |  | 
 | COc1cccc(C2C=C(c3ccc(OC)cc3OC)Nc3nnnn32)c1 (stereo not drawn) | 8.72 µM (active) | 9.03 µM (active)
